Laboratory results published in patent publication US20090143454A1, “Pyrazoline Derivatives and Their Use As Pesticides” (BAYER CROPSCIENCE AG, priority 2001, published 2009).

tested on: Periplaneta americana; experiment: Cockroach test; assay type: in vivo; settings: 20 ppm; dipped 1 minute; after 7 days
Method: (§1) 20 mg of active compound are dissolved in 1 ml of dimethyl sulphoxide. More dilute concentrations are prepared by dilution with distilled water.
4 test animals are dipped for 1 minute into the preparation of active compound to be tested. After transfer into a plastic beaker and storage for 7 days in an air-conditioned room the killing rate is determined. 100% means, that all cockroaches have been killed, 0% means, that none of the cockroaches have been killed.

Structure (SMILES)	activity/kill rate in % [%]
COC(=O)N(C(=O)N1CC(n2cc(C#N)cn2)C(c2ccc(Cl)cc2)=N1)c1ccc(OC(F)(F)F)cc1 (stereo not shown) [drawing 99]	25
CCOC(=O)N(C(=O)N1CC(n2cc(C#N)cn2)C(c2ccc(Cl)cc2)=N1)c1ccc(OC(F)(F)F)cc1 (stereo not shown) [drawing 100]	25

same assay, conditions: 100 ppm; dipped 1 minute; after 7 days

Structure (SMILES)	activity/kill rate in % [%]
N#Cc1cnn(C2CN(C(=O)Nc3ccc(OC(F)(F)F)cc3)N=C2c2ccc(I)cc2)c1 (stereo not shown) [drawing 102]	50
N#Cc1cnn(C2CN(C(=O)Nc3ccc(C(F)(F)F)cc3)N=C2c2ccc(Cl)cc2)c1 (stereo not shown) [drawing 98]	50
COC(=O)N(C(=O)N1CC(n2cc(C#N)cn2)C(c2ccc(Cl)cc2)=N1)c1ccc(OC(F)(F)F)cc1 (stereo not shown) [drawing 99]	100
N#Cc1cnn(C2CN(C(=O)Nc3ccc(OC(F)(F)F)cc3)N=C2c2ccc(Br)cc2)c1 (stereo not shown) [drawing 101]	25
CCOC(=O)N(C(=O)N1CC(n2cc(C#N)cn2)C(c2ccc(Cl)cc2)=N1)c1ccc(OC(F)(F)F)cc1 (stereo not shown) [drawing 100]	75
N#Cc1cnn(C2CN(C(=O)Nc3ccc(OC(F)(F)F)cc3)N=C2c2ccc(Cl)cc2)c1 (stereo not shown) [drawing 97]	25

tested on: Lucilia cuprina larvae; experiment: Blowfly larvae test/development-inhibitory action; assay type: in vivo; settings: 20 ppm; after 48 h
Method: as §1
About 20 Lucilia cuprina larvae are introduced into a test tube which contains about 1 cm^3 of horsemeat and 0.5 ml of the preparation of active compound to be tested. The activity of the preparation of active compound is determined after 24 and 48 hours. The test tubes are transferred into a beaker whose bottom is covered with sand. After a further 2 days, the test tubes are removed and the pupae are counted.
The activity of the preparation of active compound is assessed using the number of flies that have hatched after 1.5 times the development period of an untreated control. 100% means that none of the flies have hatched; 0% means that all of the flies have hatched normally.

Structure (SMILES)	activity/kill rate in % after 48 h
N#Cc1cnn(C2CN(C(=O)Nc3ccc(OC(F)(F)F)cc3)N=C2c2ccc(I)cc2)c1 (stereo not shown) [drawing 83]	100/100%
N#CCN(C(=O)N1CC(n2cc(C#N)cn2)C(c2ccc(Cl)cc2)=N1)c1ccc(OC(F)(F)F)cc1 (stereo not shown) [drawing 85]	100/100%

same assay, conditions: 20 ppm; after 14 d

Structure (SMILES)	activity/kill rate in % after 14 d
N#Cc1cnn(C2CN(C(=O)Nc3ccc(SC(F)(F)F)cc3)N=C2c2ccc(Cl)cc2)c1 (stereo not shown) [drawing 88]	100/100%
N#Cc1cnn(C2CN(C(=O)Nc3ccc([S+]([O-])C(F)(F)F)cc3)N=C2c2ccc(Cl)cc2)c1 (stereo not shown) [drawing 90]	100/100%

same assay, conditions: 100 ppm; after 48 h

Structure (SMILES)	activity/kill rate in % after 48 h
N#Cc1cnn(C2CN(C(=O)Nc3ccc(OC(F)(F)F)cc3)N=C2c2ccc(I)cc2)c1 (stereo not shown) [drawing 83]	100/100%
N#CCN(C(=O)N1CC(n2cc(C#N)cn2)C(c2ccc(Cl)cc2)=N1)c1ccc(OC(F)(F)F)cc1 (stereo not shown) [drawing 85]	100/100%

same assay, conditions: 100 ppm; after 14 d

Structure (SMILES)	activity/kill rate in % after 14 d
N#Cc1cnn(C2CN(C(=O)Nc3ccc(SC(F)(F)F)cc3)N=C2c2ccc(Cl)cc2)c1 (stereo not shown) [drawing 88]	100/100%
N#Cc1cnn(C2CN(C(=O)Nc3ccc([S+]([O-])C(F)(F)F)cc3)N=C2c2ccc(Cl)cc2)c1 (stereo not shown) [drawing 90]	100/100%

tested on: Heliothis virescens larvae; experiment: Test for persistency: Heliothis virescens; assay type: in vivo; settings: 20 ppm; cotton plants sprayed; infection after 5 d
Method: To produce a suitable preparation of active compound, 1 part by weight of active compound is mixed with the stated amounts of solvent and emulsifier, and the concentrate is diluted with emulsifier-containing water to the desired concentration.
Cotton plants (Gossypium hirsutum) are sprayed with a preparation of active compound of the desired concentration. After the stated number of days, Heliothis virescens larvae are, in infection chambers, placed on the treated leaves.
After the desired period of time, the kill in % is determined. 100% means that all caterpillars have been killed; 0% means that none of the caterpillars have been killed.

Structure (SMILES)	Kill rate in % 7 d after infection [%]
N#Cc1cnn(C2CN(C(=O)Nc3ccc(OC(F)(F)F)cc3)N=C2c2ccc(Cl)cc2)c1 (stereo not shown) [drawing 72]	100
N#Cc1cnn(C2CN(C(=O)Nc3ccc(SC(F)(F)F)cc3)N=C2c2ccc(Cl)cc2)c1 (stereo not shown) [drawing 74]	80
N#Cc1cnn(C2CN(C(=O)Nc3ccc(C(F)(F)F)cc3)N=C2c2ccc(Cl)cc2)c1 (stereo not shown) [drawing 73]	100

same assay, conditions: 20 ppm; cotton plants sprayed; infection after 12 d

Structure (SMILES)	Kill rate in % 7 d after infection [%]
N#Cc1cnn(C2CN(C(=O)Nc3ccc(OC(F)(F)F)cc3)N=C2c2ccc(Cl)cc2)c1 (stereo not shown) [drawing 72]	90
N#Cc1cnn(C2CN(C(=O)Nc3ccc(SC(F)(F)F)cc3)N=C2c2ccc(Cl)cc2)c1 (stereo not shown) [drawing 74]	70
N#Cc1cnn(C2CN(C(=O)Nc3ccc(C(F)(F)F)cc3)N=C2c2ccc(Cl)cc2)c1 (stereo not shown) [drawing 73]	100

same assay, conditions: 20 ppm; cotton plants sprayed; infection after 19 d

Structure (SMILES)	Kill rate in % 7 d after infection [%]
N#Cc1cnn(C2CN(C(=O)Nc3ccc(OC(F)(F)F)cc3)N=C2c2ccc(Cl)cc2)c1 (stereo not shown) [drawing 72]	100
N#Cc1cnn(C2CN(C(=O)Nc3ccc(SC(F)(F)F)cc3)N=C2c2ccc(Cl)cc2)c1 (stereo not shown) [drawing 74]	90
N#Cc1cnn(C2CN(C(=O)Nc3ccc(C(F)(F)F)cc3)N=C2c2ccc(Cl)cc2)c1 (stereo not shown) [drawing 73]	90

tested on: larvae of the mustard beetle (Phaedon cochleariae); experiment: Phaedon larvae test; assay type: in vivo; settings: 168 h, cabbage leaves dipped, after 7 d, read-out: Kill rate in % after 7 d
Method: To produce a suitable preparation of active compound, 1 part by weight of active compound is mixed with the stated amounts of solvent and emulsifier, and the concentrate is diluted with emulsifier-containing water to the desired concentration. Cabbage leaves (Brassica oleracea) are treated by being dipped into the preparation of active compound of the desired concentration and are populated with larvae of the mustard beetle (Phaedon cochleariae) while the leaves are still moist.

Structure (SMILES)	pest or weed control at 500 ppm [%]
N#Cc1cnn(C2CN(C(=O)Nc3ccc(OC(F)(F)F)cc3)N=C2c2ccc(I)cc2)c1 (stereo not shown) [drawing 51]	100
N#Cc1cnn(C2CN(C(=O)Nc3ccc(SC(F)(F)F)cc3)N=C2c2ccc(Br)cc2)c1 (stereo not shown) [drawing 50]	100
N#CCN(C(=O)N1CC(n2cc(C#N)cn2)C(c2ccc(Cl)cc2)=N1)c1ccc(OC(F)(F)F)cc1 (stereo not shown) [drawing 46]	100
N#Cc1cnn(C2CN(C(=O)Nc3ccc(OC(F)(F)F)cc3)N=C2c2ccc(Br)cc2)c1 (stereo not shown) [drawing 49]	100
N#Cc1cnn(C2CN(C(=O)Nc3ccc(S(=O)(=O)C(F)(F)F)cc3)N=C2c2ccc(Cl)cc2)c1 (stereo not shown) [drawing 52]	100
N#Cc1cnn(C2CN(C(=O)Nc3ccc(Cl)cc3)N=C2c2ccc(Cl)cc2)c1 (stereo not shown) [drawing 44]	100
COC(=O)N(C(=O)N1CC(n2cc(C#N)cn2)C(c2ccc(Cl)cc2)=N1)c1ccc(OC(F)(F)F)cc1 (stereo not shown) [drawing 45]	100
CCOC(=O)N(C(=O)N1CC(n2cc(C#N)cn2)C(c2ccc(Cl)cc2)=N1)c1ccc(OC(F)(F)F)cc1 (stereo not shown) [drawing 47]	100
N#Cc1cnn(C2CN(C(=O)Nc3ccc(OC(F)(F)F)cc3)N=C2c2ccc(Cl)cc2)c1 (stereo not shown) [drawing 43]	100
